The source of these data is US11214803B2, “Modulators of YAP1 expression” (Ionis Pharmaceuticals, Inc., priority 2019, dated 2022).

Strand notation (5' to 3'): a small letter for the sugar, then the base; units joined by * are phosphorothioate-linked, units joined directly phosphodiester-linked; [ ] holds rarer units or linkages, { } end groups; capitals alone tell only the bases. e = 2'-O-(2-methoxyethyl) (MOE); k = constrained ethyl (cEt); [5mC] = 5-methylcytosine; d = 2'-deoxy (DNA); m = 2'-O-methyl

The subject of the first data set is Yap1 mRNA. In words: Antisense inhibition of human Yap1 in SNU-449 cells by modified oligonucleotides, single dose (Example 5, RTS36584). The following applies: Table 39; SNU-449 cells, 10,000 cells per well, free uptake, 2,000 nM oligonucleotide, approx. 48 hours; RTS36584; normalized to RIBOGREEN; Yap1 mRNA relative to untreated control. It is filed as cell-based. The method, boiled down:
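Values are % of untreated control: Yap1 mRNA by quantitative RT-PCR (RTS36584), normalized to RIBOGREEN total RNA. Oligonucleotides were dosed at 2,000 nM, free uptake, in SNU-449 cells, with roughly 48 h exposure before RNA isolation.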
For “1198415 (kG*dA*dT*dT*dT*dA*dG*dG*dA*dT*dG*k[5mC]*eA*kT*eG*kG; antisense) [Compound 1198415]”, the “YAP1 (% UTC)” value came to 29 % UTC.
Take “1198421 (kT*dT*dA*dT*dA*dT*dG*dG*dT*dT*dT*kT*eG*kT*eG*kT; antisense) [Compound 1198421]”: the “YAP1 (% UTC)” value worked out at 36 % UTC.
Still for that read-out and setting: for “1198407 (kT*dG*d[5mC]*dT*dT*dT*dG*dG*dA*dA*dG*kA*eT*k[5mC]*eT*kG; antisense) [Compound 1198407]” the value was 23 % UTC; for “1198375 (kG*dG*dA*dA*dA*dT*dT*dG*dT*d[5mC]*dT*k[5mC]*eA*kT*eG*k[5mC]; antisense) [Compound 1198375]”, 22 % UTC.
For “1198412 (kT*dT*dA*dG*dG*dA*dT*dG*d[5mC]*dA*dT*kG*eG*kT*eT*kT; antisense) [Compound 1198412]”, the “YAP1 (% UTC)” value stood at 17 % UTC.
The same measure, in the same setting: under “1198396 (kA*d[5mC]*dT*dT*dT*dT*dA*d[5mC]*dA*dT*dT*kA*eG*kG*eA*kA; antisense) [Compound 1198396]” stands 25 % UTC; under “1198395 (k[5mC]*dT*dT*dT*dT*dA*d[5mC]*dA*dT*dT*dA*kG*eG*kA*eA*k[5mC]; antisense) [Compound 1198395]”, 35 % UTC.

Still in this data set, the particulars now being: Table 40 (separate experiment); SNU-449 cells, 10,000 cells per well, free uptake, 2,000 nM oligonucleotide, approx. 48 hours; RTS36584; normalized to RIBOGREEN; Yap1 mRNA relative to untreated control.
Regarding “1198759 (kA*eG*kG*dA*dT*dG*d[5mC]*dA*dT*dG*dG*dT*eT*eT*kT*kT; antisense) [Compound 1198759]”, the “YAP1 (% UTC)” value amounted to 27 % UTC.
Same read-out and setting: under “1198785 (antisense kT*eT*kT*dA*dT*dG*dT*dA*dA*dT*dA*dT*eT*eG*k[5mC]*kA) [Compound 1198785]” stands 86 % UTC; under “1198717 (kA*eA*kA*dT*dT*dG*dT*d[5mC]*dT*d[5mC]*dA*dT*eG*e[5mC]*k[5mC]*kT; antisense) [Compound 1198717]”, 41 % UTC.

Staying with this data set, now noted: Table 41; SNU-449 cells, 10,000 cells per well, free uptake, 2,000 nM modified oligonucleotide, approximately 48 hours; RTS36584; normalized to RIBOGREEN; Yap1 mRNA relative to untreated control cells.
On to “1198652 (kT*kT*dT*dT*dA*d[5mC]*dA*dT*dT*dA*dG*dG*kA*eA*k[5mC]*eA; antisense) [Compound 1198652]”, for which the “YAP1 (% UTC)” value is given as 68 % UTC.

The same data set, now with this note: Table 42 (separate experiment); SNU-449 cells, 10,000 cells per well, free uptake, 2,000 nM modified oligonucleotide, approximately 48 hours; RTS36584; normalized to RIBOGREEN; Yap1 mRNA relative to untreated control cells.
Consider “1198222 (kT*kT*dT*dT*dA*d[5mC]*dA*dT*dT*dA*dG*eG*eA*eA*k[5mC]*kA) [Compound 1198222]”, for which the “YAP1 (% UTC)” value turned out to be 87 % UTC.
Still for that read-out and setting: for “1198199 (kA*kT*dT*dG*dT*d[5mC]*dT*d[5mC]*dA*dT*dG*e[5mC]*e[5mC]*eT*kT*kA; antisense) [Compound 1198199]” the value was 38 % UTC; for “1198699 (kA*kA*dA*dG*dT*dG*dT*dA*dT*dG*dT*d[5mC]*kA*eG*kA*eA; antisense) [Compound 1198699]”, 30 % UTC; for “1198207 (kA*kG*dT*dA*dT*dG*dT*dG*dG*d[5mC]*dA*eA*eT*eA*kA*kT; antisense) [Compound 1198207]”, 91 % UTC.

Still in this data set, the particulars now being: Table 43 experiment; SNU-449 cells, 10,000 cells per well, free uptake, 2,000 nM, approximately 48 hours; RTS36584; Yap1 mRNA normalized to RIBOGREEN, relative to untreated control cells.
Take “1198258 (kA*kT*dA*dT*dT*dG*d[5mC]*dA*dA*dT*d[5mC]*eT*eG*eT*k[5mC]*kT; antisense) [Compound 1198258]”: the “YAP1 (% UTC)” value was 52 % UTC.
As for “1198274 (kA*kA*d[5mC]*dT*dT*dT*dA*dA*dA*dG*dT*eG*eT*eA*kT*kG; antisense) [Compound 1198274]”, the “YAP1 (% UTC)” value is given as 69 % UTC.
On the same count and under the same terms, for “1198482 (antisense kA*k[5mC]*dT*dT*dT*dT*dA*d[5mC]*dA*dT*dT*eA*kG*eG*kA*eA) [Compound 1198482]” the value was 63 % UTC.
Still for that read-out and setting: under “1198272 (kT*kT*dT*dA*dA*dA*dG*dT*dG*dT*dA*eT*eG*eT*k[5mC]*kA; antisense) [Compound 1198272]” stands 37 % UTC.

The data set is the same for the next values; noted with them: Table 44 experiment; SNU-449 cells, 10,000 cells per well, free uptake, 2,000 nM, approximately 48 hours; RTS36584; Yap1 mRNA normalized to RIBOGREEN, relative to untreated control cells.
As to “1198530 (kT*kT*dT*dA*dA*dA*dG*dT*dG*dT*dA*eT*kG*eT*k[5mC]*eA; antisense) [Compound 1198530]”, the “YAP1 (% UTC)” value is reported as 29 % UTC.
For “1198521 (kA*kT*dG*dT*dA*dA*dT*dA*dT*dT*dG*e[5mC]*kA*eA*kT*e[5mC]; antisense) [Compound 1198521]”, the “YAP1 (% UTC)” value is reported as 44 % UTC.
Same read-out and setting: under “1198508 (k[5mC]*kT*dT*dA*dT*dA*dT*dG*dG*dT*dT*eT*kT*eG*kT*eG; antisense) [Compound 1198508]” stands 22 % UTC.

The data set is the same for the next values; noted with them: Table 45; Yap1 mRNA as percent of untreated control, SNU-449 cells, single dose.
As to “1198971 (k[5mC]*kT*dA*dA*dG*dT*dA*dA*dG*dG*dT*kT*dT*k[5mC]*d[5mC]*k[5mC]; antisense) [Compound 1198971]”, the “YAP1 (% UTC)” value is 31 % UTC.
On the same count and under the same terms, for “1198933 (kT*kT*dT*dA*dG*dG*dA*dT*dG*d[5mC]*dA*kT*dG*kG*dT*kT; antisense) [Compound 1198933]” the value was 69 % UTC.

The same data set, now with this note: Table 46; Yap1 mRNA as percent of untreated control, SNU-449 cells, single dose.
As to “1198867 (kG*kT*dA*dA*dT*dA*dT*dT*dG*d[5mC]*dA*kA*eT*k[5mC]*eT*kG; antisense) [Compound 1198867]”, the “YAP1 (% UT)” value was found to be 25 % UT.
On the same count and under the same terms, for “1198847 (kT*kT*dT*dA*dG*dG*dA*dT*dG*d[5mC]*dA*kT*eG*kG*eT*kT; antisense) [Compound 1198847]” the value was 51 % UT; for “1198834 (kA*kA*dG*d[5mC]*dA*d[5mC]*dT*dT*dT*dT*dA*k[5mC]*eA*kT*eT*kA; antisense) [Compound 1198834]”, 54 % UT; for “1095425 (antisense kT*kG*dA*dG*dG*dT*dA*dT*dA*dA*d[5mC]*kT*eG*kG*eG*k[5mC]) [Compound 1095425]”, 57 % UT.
Still for that read-out and setting: under “1198857 (kT*k[5mC]*dT*dT*dA*dT*dA*dT*dG*dG*dT*kT*eT*kT*eG*kT; antisense) [Compound 1198857]” stands 19 % UT; under “1198854 (kA*kT*dA*dT*dG*dG*dT*dT*dT*dT*dG*kT*eG*kT*eG*kT; antisense) [Compound 1198854]”, 56 % UT.

The data set is the same for the next values; noted with them: Table 48; Yap1 mRNA level relative to untreated control; modified oligonucleotides targeting SEQ ID NO.: 1 and 2.
Consider “1009396 (k[5mC]*kA*k[5mC]*dT*dG*dA*dG*dG*dT*dA*dT*dA*dA*k[5mC]*kT*kG; antisense) [Compound 1009396]”, for which the “YAP1 (% UT)” value is listed as 41 % UT.
Same read-out and setting: under “1198319 (k[5mC]*kT*kT*dT*dG*dG*dA*dA*dG*dA*dT*d[5mC]*kT*eG*kA*eA; antisense) [Compound 1198319]” stands 47 % UT; under “1009395 (k[5mC]*kT*kG*dA*dG*dG*dT*dA*dT*dA*dA*d[5mC]*dT*kG*kG*kG; antisense) [Compound 1009395]”, 43 % UT.

Still in this data set, the particulars now being: Table 49; Yap1 mRNA level relative to untreated control; modified oligonucleotides targeting SEQ ID NO.: 1 and 2.
With “1198334 (kA*kT*kA*dT*dG*dG*dT*dT*dT*dT*dG*dT*kG*eT*kG*eT; antisense) [Compound 1198334]”, the “YAP1 (% UT)” value is 57 % UT.
On the same count and under the same terms, under “1198556 (antisense kT*kA*kT*dT*dA*dG*dA*dG*dT*dA*dT*dG*kT*kG*kG*e[5mC]) [Compound 1198556]” stands 25 % UT; under “1198578 (antisense GCTTTGGAAGATCTGA; chemistry not fully specified) [Compound 1198578]”, 18 % UT; under “1198363 (kA*kA*kG*dT*dA*dA*dG*dG*dT*dT*dT*d[5mC]*k[5mC]*e[5mC]*kA*eG; antisense) [Compound 1198363]”, 55 % UT.
Regarding “1198337 (kT*k[5mC]*kT*dT*dA*dT*dA*dT*dG*dG*dT*dT*kT*eT*kG*eT; antisense) [Compound 1198337]”, the “YAP1 (% UT)” value was 26 % UT.

Staying with this data set, now noted: Table 50; Yap1 mRNA remaining as percent of untreated control (UT), SNU-449 cells, single dose.
In the case of “1198588 (antisense kA*kG*kA*dT*dT*dT*dA*dG*dG*dA*dT*dG*k[5mC]*kA*kT*eG) [Compound 1198588]”, the “YAP1 (% UT)” value came to 32 % UT.
Still for that read-out and setting: under “1198620 (kA*kG*kT*dA*dA*dG*dG*dT*dT*dT*d[5mC]*d[5mC]*k[5mC]*kA*kG*eA) [Compound 1198620]” stands 26 % UT.

Staying with this data set, now noted: Table 51; Yap1 mRNA remaining as percent of untreated control (UT), SNU-449 cells, single dose.
As to “1197290 (kG*kA*kG*dG*mU*dA*dT*dA*dA*d[5mC]*dT*dG*dG*kG*k[5mC]*kA) [Compound 1197290]”, the “YAP1 (% UT)” value is 37 % UT.
The same measure, in the same setting: under “1197255 (antisense kT*kT*kT*dA*mG*dG*dA*dT*dG*d[5mC]*dA*dT*dG*kG*kT*kT) [Compound 1197255]” stands 38 % UT.
Still for that read-out and setting: under “1197302 (k[5mC]*kA*kG*dA*mU*dT*dT*dA*dG*dG*dA*dT*dG*k[5mC]*kA*kT; antisense) [Compound 1197302]” stands 54 % UT.

The same data set, now with this note: Table 52; Yap1 mRNA, modified oligonucleotides targeting SEQ ID NO: 1 and 2.
For “1200821 (kT*kT*kG*dG*dA*mA*dG*dA*dT*d[5mC]*dT*dG*dA*kA*kA*k[5mC]; antisense) [Compound 1200821]”, the “YAP1 (% UT)” value was 59 % UT.

Still in this data set, the particulars now being: Yap1 mRNA, percent of untreated control; modified oligonucleotides targeting SEQ ID NO: 1 and 2; Table 47.
As to “1198872 (kT*kG*dT*dA*dT*dG*dT*d[5mC]*dA*dG*dA*kA*eG*kA*eG*kT; antisense) [Compound 1198872]”, the “YAP1 (% UT)” value worked out at 8 % UT.
On the same count and under the same terms, for “1074798 (kG*k[5mC]*kT*dT*dT*dG*dG*dA*dA*dG*dA*dT*d[5mC]*kT*kG*kA) [Compound 1074798]” the value was 19 % UT.
